Results: PubChem BioAssay AID1918944 (Molecular Pharmacology Branch, DTP, NCI, 2023)
Where “and” joins values, the source holds several entries; their conditions need not be identical. Identical values can stand only once.

Tested on: 786-0 complex spheroid viability
Experiment: Anticancer human tumor 786-0 cell line growth inhibition;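 also: spheroids exposed to agents for seven days before readout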
Details: for viability, T/C: stronger effect = lower value
Description: Multicellular complex tumor spheroid response to LSD1 Inhibitor Iadademstat in combination with a variety of drugs and investigational agents in selected tumor cell lines
The current study was undertaken to assess response to LSD1 inhibitors in combination with standard-of-care drugs and investigational agents in solid tumor complex spheroid models as well as in the K-562 leukemia. Complex spheroids include a stromal component modeled by human endothelial cells (HUVEC) and fibroblasts modeled by human mesenchymal stem cells (MSCs). The concentration ranges selected for each drug and investigational agent were based upon clinically achievable concentrations if the clinical Cmax of the agent was known.
Compounds. The drugs and investigational agents used in this study are listed on Table 1. All of the agents used, including staurosporine (NSC755774) and gemcitabine (NSC613327), were obtained from the Developmental Therapeutics Program, NCI. FDA-approved anticancer drugs are available from the NCI at http://dtp.nci.nih.gov/branches/dscb/oncology_drugset_explanation.html. Drugs and investigational agents were >95% pure by proton nuclear magnetic resonance (NMR) and liquid chromatography/mass spectrometry (LC/MS). Stock solutions were prepared at 400x in DMSO, stored at -70 degrees C, and diluted in fresh medium prior to their use. The final concentration of DMSO in cell culture wells never exceeded 0.25% (v/v). The FDA-approved anticancer drug set is available from the Developmental Therapeutics Program at https://dtp.cancer.gov/organization/dscb/obtaining/available_plates.htm. All drugs and investigational agents were tested over a range starting from a high concentration at or near the clinical Cmax and decreasing in half-log increments. If the clinical Cmax for an agent had not been determined, the highest concentration tested was 10 microM.
Cell Lines. The patient-derived cancer cell (PDC) lines: 292921-168-R-J2-PDC, K24384-001-R-PDC, and 521955-158-R2-J5-PDC pancreatic carcinomas, 556581-035-R-J1 ovarian carcinoma, 324938-238-R-J1-PDC, 855422-203-R-J1-PDC and 883617-216-R-J1-PDC urothelial bladder carcinomas, 743489-274-T-PDC renal cell carcinoma, 138582-R-J1 Merkel cell tumor, K60290-347-R-J1 and K57222-313-R-J1-PDC glioblastomas, 653999-131-R-J2-PDC, LG0703-F948-PDC, and 349418-098-R-PDC non-small cell lung carcinomas, 885512-296-R-J2-PDC, 171881-019-R-J1-PDC breast carcinomas and 186277-243-T-J2-PDC and 233499-124-R-J2-PDC colon carcinomas were obtained from the NCI Patient-Derived Models Repository (PDMR, https://pdmr.cancer.gov). The established cell lines NCI/ADR-RES (RRID:CVCL_14520 and OVCAR-5 (RRID:CVCL_1628) ovarian carcinomas, 786-O (RRID:CVCL_1051) and A498 (RRID:CVCL_A498) renal cell carcinoma, NCI-H211 (ATCC, cat. CRL-5824; RRID:CVCL_1529), NCI-H196 (ATCC, cat. CRL-5823, RRID:CVCL_1509), SW 1271 (ATCC, cat. CRL-2177, RRID:CVCL_1716) and NCI-H1876 (ATCC, cat. CRL-5902, RRID:CVCL_1503) small cell lung carcinomas, MDA-MB-231 (RRID:CVCL_0062) and MDA-MB-468 (RRID:CVCL_0419)breast carcinomas (10-12). Pooled donor human umbilical vein endothelial cells (HUVEC, Lonza, cat. CC-2519) and human mesenchymal stem cells (hMSC, Lonza, cat. PT-2501) were purchased from Lonza (Walkersville, MD).
Cell Culture. All cells were maintained in an incubator at 37 degrees C and 5% CO2 with 95% humidity. The PDC lines were cultured according to standard operating procedures established by the NCI PDMR (https://pdmr.cancer.gov). Briefly all PDCs were thawed and cultured in Matrigel-coated flasks prepared with a working solution of 1X Ham's F-12 nutrient mix, without supplementation (Invitrogen, Waltham, MA, cat. 11765054), 100 U/mL penicillin-streptomycin (Invitrogen, cat. 15140122), and 2.5% Matrigel (Corning Inc., Corning, NY, cat. 354248) for the first three passages. […]

[1] = curve of first compound, second compound 0.1 µM
[2] = curve of first compound, second compound 0.316 µM
[3] = curve of first compound, second compound 1 µM
[4] = curve of first compound, second compound 3.16 µM
[5] = curve of first compound, second compound 10 µM
[6] = second compound 0.1 µM, first compound 0.00316 µM
[7] = second compound 0.1 µM, first compound 0.01 µM
[8] = second compound 0.1 µM, first compound 0.0316 µM
[9] = second compound 0.1 µM, first compound 0.1 µM
[10] = second compound 0.1 µM, first compound 0.316 µM
[11] = second compound 0.1 µM, first compound 1 µM
[12] = second compound 0.316 µM, first compound 0.00316 µM
[13] = second compound 0.316 µM, first compound 0.01 µM
[14] = second compound 0.316 µM, first compound 0.0316 µM
[15] = second compound 0.316 µM, first compound 0.1 µM
[16] = second compound 0.316 µM, first compound 0.316 µM
[17] = second compound 0.316 µM, first compound 1 µM
[18] = second compound 1 µM, first compound 0.00316 µM
[19] = second compound 1 µM, first compound 0.01 µM
[20] = second compound 1 µM, first compound 0.0316 µM
[21] = second compound 1 µM, first compound 0.1 µM
[22] = second compound 1 µM, first compound 0.316 µM
[23] = second compound 1 µM, first compound 1 µM
[24] = second compound 3.16 µM, first compound 0.00316 µM
[25] = second compound 3.16 µM, first compound 0.01 µM
[26] = second compound 3.16 µM, first compound 0.0316 µM
[27] = second compound 3.16 µM, first compound 0.1 µM
[28] = second compound 3.16 µM, first compound 0.316 µM
[29] = second compound 3.16 µM, first compound 1 µM
[30] = second compound 10 µM, first compound 0.00316 µM
[31] = second compound 10 µM, first compound 0.01 µM
[32] = second compound 10 µM, first compound 0.0316 µM
[33] = second compound 10 µM, first compound 0.1 µM
[34] = second compound 10 µM, first compound 0.316 µM
[35] = second compound 10 µM, first compound 1 µM

Compound | IC50 [1] [nM] | IC50 [2] [nM] | IC50 [3] [nM] | IC50 [4] [nM] | IC50 [5] [nM] | viability, T/C [6] [%] | viability, T/C [7] [%] | viability, T/C [8] [%] | viability, T/C [9] [%] | viability, T/C [10] [%] | viability, T/C [11] [%] | viability, T/C [12] [%] | viability, T/C [14] [%] | viability, T/C [15] [%] | viability, T/C [20] [%] | viability, T/C [21] [%] | viability, T/C [26] [%] | viability, T/C [27] [%] | viability, T/C [32] [%] | viability, T/C [33] [%] | other results
O=C(c1cc(Cc2n[nH]c(=O)c3ccccc23)ccc1F)N1CCN(C(=O)C2CC2)CC1 | – | – | – | – | – | – | – | – | – | – | – | – | – | – | – | – | – | – | – | – | viability, T/C (compound 0.0316 µM): 103%; viability, T/C (compound 0.1 µM): 103%; viability, T/C (compound 0.316 µM): 104% and 103%; viability, T/C (compound 1 µM): 96.8% and 102%; viability, T/C (compound 3.16 µM): 85% and 97%; viability, T/C (compound 10 µM): 61.8% and 74.5%; IC50 (curve of compound): > 10000 nM
CC1COCCN1c1cc(-c2ccnn2C)c2ccnc(-c3ccn[nH]3)c2n1 (configuration not stated) + NC1CC1c1ccc(-c2cccc(O)c2)cc1 | 47.9 | 45.3 | 44.1 | 30.7 | 17.4 | 119 | 108 | 63.8 | 25.9 | 16.2 | 17.9 | 115 | 62.5 | 22.7 | 61.5 | 22.6 | 48.2 | 23.1 | 28.4 | 17 | viability, T/C [13]: 107%; viability, T/C [16]: 15%; viability, T/C [17]: 17.3%; viability, T/C [18]: 111%; viability, T/C [19]: 111%; viability, T/C [22]: 15.8%; viability, T/C [23]: 17%; viability, T/C [24]: 112%; viability, T/C [25]: 98.5%; viability, T/C [28]: 15%; viability, T/C [29]: 18.4%; viability, T/C [30]: 103%; viability, T/C [31]: 70.2%; viability, T/C [34]: 12.9%; viability, T/C [35]: 19.6%
CC(C)CC(NC(=O)CNC(=O)c1cc(Cl)ccc1Cl)B1OC(=O)CC(CC(=O)O)(C(=O)O)O1 (configuration not stated) + NC1CCC(NC2CC2c2ccccc2)CC1 | 12.9 | 10.7 | 12 | 9.62 | 10.2 | 110 | 52.4 | 32.4 | 9.25 | – | – | 121 | 30.7 | 8.11 | 34.1 | 10 | 29.5 | 9.53 | 19.7 | 7.29 | viability, T/C (second compound 0.1 µM, first compound 0.000316 µM): 127%; viability, T/C (second compound 0.1 µM, first compound 0.001 µM): 123%; viability, T/C (second compound 0.316 µM, first compound 0.000316 µM): 129%; viability, T/C (second compound 0.316 µM, first compound 0.001 µM): 130%; viability, T/C [13]: 51.6%; viability, T/C (second compound 1 µM, first compound 0.000316 µM): 113%; viability, T/C (second compound 1 µM, first compound 0.001 µM): 128%; viability, T/C [18]: 112%; viability, T/C [19]: 52.3%; viability, T/C (second compound 3.16 µM, first compound 0.000316 µM): 109%; viability, T/C (second compound 3.16 µM, first compound 0.001 µM): 112%; viability, T/C [24]: 107%; viability, T/C [25]: 46.7%; viability, T/C (second compound 10 µM, first compound 0.000316 µM): 96.8%; viability, T/C (second compound 10 µM, first compound 0.001 µM): 91.4%; viability, T/C [30]: 82.1%; viability, T/C [31]: 50.1%
O=C(C=Cn1cnc(-c2cc(C(F)(F)F)cc(C(F)(F)F)c2)n1)NNc1cnccn1 + NC1CC1c1ccc(-c2cccc(O)c2)cc1 | 37.7 | 34.3 | 40 | 37.5 | 35.6 | 92.5 | 72.2 | 51.1 | 39.1 | 28.9 | 25.2 | 100 | 51.5 | 36.7 | 53.4 | 37.7 | 52.4 | 38.1 | 55 | 39.4 | viability, T/C [13]: 72.5%; viability, T/C [16]: 29.9%; viability, T/C [17]: 26.2%; viability, T/C [18]: 95.7%; viability, T/C [19]: 71.3%; viability, T/C [22]: 31.2%; viability, T/C [23]: 22.7%; viability, T/C [24]: 99.4%; viability, T/C [25]: 73.5%; viability, T/C [28]: 29.1%; viability, T/C [29]: 26.3%; viability, T/C [30]: 108%; viability, T/C [31]: 67.8%; viability, T/C [34]: 29.7%; viability, T/C [35]: 25.4%
CC1COCCN1c1cc(C2(S(C)(=N)=O)CC2)nc(-c2ccnc3[nH]ccc23)n1 (configuration not stated) + NC1CC1c1ccc(-c2cccc(O)c2)cc1 | 943 | 1020 | 933 | 819 | 751 | – | – | 99.5 | 107 | 89.1 | 47.4 | – | 114 | 110 | 101 | 102 | 94.5 | 101 | 99 | 95.2 | viability, T/C (second compound 0.1 µM, first compound 3.16 µM): 22.8%; viability, T/C (second compound 0.1 µM, first compound 10 µM): 14.4%; viability, T/C [16]: 98.8%; viability, T/C [17]: 49.7%; viability, T/C (second compound 0.316 µM, first compound 3.16 µM): 22.7%; viability, T/C (second compound 0.316 µM, first compound 10 µM): 14.8%; viability, T/C [22]: 88%; viability, T/C [23]: 46.4%; viability, T/C (second compound 1 µM, first compound 3.16 µM): 22.9%; viability, T/C (second compound 1 µM, first compound 10 µM): 12.8%; viability, T/C [28]: 86%; viability, T/C [29]: 41.8%; viability, T/C (second compound 3.16 µM, first compound 3.16 µM): 22.9%; viability, T/C (second compound 3.16 µM, first compound 10 µM): 14.6%; viability, T/C [34]: 81.3%; viability, T/C [35]: 38.1%; viability, T/C (second compound 10 µM, first compound 3.16 µM): 25.6%; viability, T/C (second compound 10 µM, first compound 10 µM): 13.4%
